Here are results for seven molecules from patent US20160355530A1, “HEPATITIS C INHIBITORS AND USES THEREOF” (AbbVie Inc., priority 2010, published 2016).

Assay [1] relates to HCV 1a-H77 subgenomic replicon. Put plainly: microbe, parasite or virus in culture. The conditions noted are these: Hepatitis C virus, stable replicon. It is filed as cell-based, HCV genotype 1a.
Assay [2] relates to HCV NS5B polymerase 1a-H77-C316Y. Put plainly: biochemical. The arrangement: species or system HCV genotype 1a. The settings on record: ratio of enzyme IC50s, 1a H77-C316Y / 1a H77. An outline of the steps:
(§1)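 Incorporation of [3H]UTP (0.284 μM), alongside 20 μM each CTP and ATP, into RNA copied from a 5 nM 2.1 kb genotype 1b negative-strand template was measured after 3 h at 30° C using purified His-tagged NS5B truncated at residue 570. Product was spermine-precipitated, filtered and scintillation-counted; nonlinear regression gave IC50.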

For assay [3], the target named is T1, HCV NS5B polymerase 1a-H77 (Hepatitis C virus genotype 1a, UniProt P27958).
T1 construct: six-histidine tag; made in house; host or cells: E. coli
T1 sequence (P27958 2421-2990): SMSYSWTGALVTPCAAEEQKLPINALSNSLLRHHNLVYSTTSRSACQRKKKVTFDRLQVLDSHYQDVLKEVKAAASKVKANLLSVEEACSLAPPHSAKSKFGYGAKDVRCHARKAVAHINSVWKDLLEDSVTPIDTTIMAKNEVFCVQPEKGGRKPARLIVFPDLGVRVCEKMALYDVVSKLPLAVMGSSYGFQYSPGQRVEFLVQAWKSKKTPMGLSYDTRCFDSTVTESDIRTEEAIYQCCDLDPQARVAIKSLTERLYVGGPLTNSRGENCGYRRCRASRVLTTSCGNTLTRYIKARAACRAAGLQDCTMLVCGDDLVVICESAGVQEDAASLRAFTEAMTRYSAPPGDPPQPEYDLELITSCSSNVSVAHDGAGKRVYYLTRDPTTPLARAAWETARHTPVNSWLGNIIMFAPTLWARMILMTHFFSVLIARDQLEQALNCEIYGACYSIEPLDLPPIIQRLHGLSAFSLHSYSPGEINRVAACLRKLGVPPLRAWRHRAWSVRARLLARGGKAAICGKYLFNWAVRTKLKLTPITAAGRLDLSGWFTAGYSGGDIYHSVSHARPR
In words: biochemical. The arrangement: species or system HCV genotype 1a. The settings on record: enzyme, strain 1a H77; read-out: HCV Polymerase Strain 1a H77 IC50. An outline of the steps: as §1

Assay [4] addresses T2, HCV NS5B polymerase 1a-H77-C316Y (Hepatitis C virus genotype 1a, UniProt P27958, C2736Y).
T2 construct: six-histidine tag; made in house; host or cells: E. coli
Put plainly: biochemical. More on the design: species or system HCV genotype 1a. The gist of the method:
as §1

Assay [5] relates to HCV 1b-BB7 subgenomic replicon. In words: microbe, parasite or virus in culture. It is filed as cell-based, HCV genotype 1b. The conditions noted are these: Hepatitis C virus, stable replicon.
Assay [6] relates to chimeric replicon with genotype 3a NS5B. In words: microbe, parasite or virus in culture. It is filed as cell-based, HCV genotype 3a. The settings on record: Hepatitis C virus, read-out: 3a chimera 5% FBS EC50.
The target of assay [7] is T3, HCV NS5B polymerase 1b BK strain (Hepatitis C virus genotype 1b, UniProt P26663).
T3 construct: six-histidine tag; made in house; host or cells: E. coli
T3 sequence (P26663 2420-2989): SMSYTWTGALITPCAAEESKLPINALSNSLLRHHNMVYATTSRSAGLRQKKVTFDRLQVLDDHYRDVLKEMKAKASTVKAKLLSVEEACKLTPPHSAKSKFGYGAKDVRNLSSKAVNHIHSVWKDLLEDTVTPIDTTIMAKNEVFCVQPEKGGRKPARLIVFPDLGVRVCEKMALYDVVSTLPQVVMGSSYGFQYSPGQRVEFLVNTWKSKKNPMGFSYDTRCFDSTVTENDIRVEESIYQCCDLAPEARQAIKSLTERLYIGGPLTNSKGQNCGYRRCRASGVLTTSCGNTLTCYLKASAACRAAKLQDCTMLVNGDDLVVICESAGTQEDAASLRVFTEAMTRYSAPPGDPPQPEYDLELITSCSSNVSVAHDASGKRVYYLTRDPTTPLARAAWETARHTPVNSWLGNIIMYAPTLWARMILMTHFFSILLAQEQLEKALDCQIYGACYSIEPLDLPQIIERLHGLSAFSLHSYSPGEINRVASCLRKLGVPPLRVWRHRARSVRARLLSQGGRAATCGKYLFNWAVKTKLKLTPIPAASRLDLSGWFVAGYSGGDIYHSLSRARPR
Put plainly: HCV NS5B polymerase enzymatic inhibition assay, strain 1b BK. It is filed as biochemical. The settings on record: enzyme, strain 1b BK; read-out: HCV Polymerase Strain 1b BK IC50. The gist of the method:
as §1

Assay [8] concerns chimeric replicon with 2a-J6CF-derived NS5B. In words: microbe, parasite or virus in culture. It is filed as cell-based, HCV genotype 2a. The conditions noted are these: Hepatitis C virus, read-out: 2a chimera 5% FBS EC50.
For assay [9], the system named is HCV 1a-H77 transient subgenomic replicon in Huh-7 derived cell line. Put plainly: microbe, parasite or virus in culture. It is filed as cell-based, HCV genotype 1a. The conditions noted are these: Hepatitis C virus, Huh-7; transient replicon, 5% FBS; read-out: Transient Replicon 1a H77 5% FBS EC50. An outline of the steps:
(§2)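 Subgenomic replicon RNA (no Neo gene) electroporated into Huh-7-derived cells, plated at 5×10^3 cells/well; a 4 h plate gauged transfection efficiency. Cells exposed to 3-fold compound dilutions (0.5% DMSO) for 4 days at 37° C, then lysed for luciferase readout; EC50 calculated.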

Assay [10] concerns HCV 1a-H77-C316Y transient subgenomic replicon in Huh-7 derived cell line. Put plainly: microbe, parasite or virus in culture. It is filed as cell-based, HCV genotype 1a. The settings on record: for EC50: Hepatitis C virus, Huh-7, read-out: Transient Replicon 1a H77-C316Y 5% FBS EC50; for Transient Replicon Fold Resistance C316Y/1a: ratio of transient replicon EC50s, C316Y / 1a H77. The gist of the method:
as §2

Assay [11] deals with chimeric replicon with genotype 2b NS5B. In words: microbe, parasite or virus in culture. It is filed as cell-based, HCV genotype 2b. The settings on record: Hepatitis C virus, read-out: 2b chimera 5% FBS EC50.
The subject of assay [12] is chimeric replicon with genotype 4a NS5B. Put plainly: microbe, parasite or virus in culture. It is filed as cell-based, HCV genotype 4a. The conditions noted are these: Hepatitis C virus, read-out: 4a chimera 5% FBS EC50.
[13] abbreviates: 5% FBS, absence of human plasma, read-out: Stable Replicon 1a H77 5% FBS EC50.
Where [14] appears, read: strain 1a H77, 5% FBS + 40% human plasma, read-out: 1a H77 5% FBS + 40% Human Plasma EC50.
[15] abbreviates: strain 1a H77, 5% FBS, no human plasma, read-out: 1a H77 5% FBS EC50.
Setting [16] is: strain 1a H77, 5% FBS, read-out: 1a H77 5% FBS EC50.
[17] abbreviates: strain 1b BB7, 5% FBS + 40% human plasma, read-out: 1b BB7 5% FBS + 40% Human Plasma EC50.
Setting [18] is: strain 1b BB7, 5% FBS, no human plasma, read-out: 1b BB7 5% FBS EC50.
[19] abbreviates: strain 1b BB7, 5% FBS, read-out: 1b BB7 5% FBS EC50.

Read-outs that look alike come from different tables or passages of the source.

T2 sequence (P27958 2421-2990 C2736Y): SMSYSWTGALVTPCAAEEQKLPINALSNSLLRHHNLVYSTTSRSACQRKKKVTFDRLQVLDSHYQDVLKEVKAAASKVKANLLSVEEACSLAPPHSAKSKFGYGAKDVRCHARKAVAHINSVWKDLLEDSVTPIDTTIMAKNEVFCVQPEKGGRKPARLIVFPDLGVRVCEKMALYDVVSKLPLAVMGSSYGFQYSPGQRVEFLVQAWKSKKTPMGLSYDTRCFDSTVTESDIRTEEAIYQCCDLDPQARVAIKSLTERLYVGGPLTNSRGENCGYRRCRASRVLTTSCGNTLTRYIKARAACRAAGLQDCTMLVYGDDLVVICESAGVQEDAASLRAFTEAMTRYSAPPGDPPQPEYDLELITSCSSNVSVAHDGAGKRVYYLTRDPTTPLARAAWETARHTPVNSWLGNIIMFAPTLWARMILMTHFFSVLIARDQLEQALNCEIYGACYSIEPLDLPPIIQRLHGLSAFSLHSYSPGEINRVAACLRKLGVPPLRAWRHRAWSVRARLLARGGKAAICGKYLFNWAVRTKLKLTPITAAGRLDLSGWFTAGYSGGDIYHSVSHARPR

For `CS(=O)(=O)CCCN(c1cc2oc(-c3ccc(F)cc3)c(-c3ncc[nH]3)c2cc1C1CC1)S(C)(=O)=O` [Example 101, N-[5-cyclopropyl-2-(4-fluorophenyl)-3-(1H-imidazol-2-yl)-1-benzofuran-6-yl]-N-[3-(methylsulfonyl)propyl]methanesulfonamide], the EC50 in [1] (setting [13]) was determined as 4.1 nM; in assay [1] (setting [14]), 110 nM; in assay [1] (setting [15]), 4.1 nM; in assay [1] (setting [16]) it was 4.12 nM; in assay [5] (setting [17]), 75 nM; in [5] (setting [18]), 5.9 nM. In addition, the EC50 in [5] (setting [19]) was found to be 5.9 nM; in assay [6], 4.3 nM; in assay [8], 33 nM; in assay [9] it was 3.7 nM; in [10], 102 nM; in assay [11] it was 33.4 nM. Further, the EC50 in assay [12] was found to be 56.4 nM. The “C316Y/1a Fold Resistance” value in assay [2] is recorded as 9 fold. The IC50 amounted to 5 nM in assay [3], 46 nM in [4] and 11 nM in assay [7]. In addition, the “Transient Replicon Fold Resistance C316Y/1a” value in assay [10] was found to be 28 fold.
Take `CS(=O)(=O)N(CCCC(N)=O)c1cc2oc(-c3ccc(F)cc3)c(-c3ncc[nH]3)c2cc1C1CC1` [Example 108, 4-{[5-cyclopropyl-2-(4-fluorophenyl)-3-(1H-imidazol-2-yl)-1-benzofuran-6-yl](methylsulfonyl)amino}butanamide]: the EC50 worked out at 15.3 nM in assay [1] (setting [13]); 49 nM in assay [1] (setting [14]); 15.3 nM in [1] (setting [15]); 15.3 nM in assay [1] (setting [16]); 57 nM in [5] (setting [17]); 10.1 nM in assay [5] (setting [18]). Also, the EC50 in assay [5] (setting [19]) amounted to 10.1 nM; in [6], 11 nM; in assay [8], 156 nM; in assay [9], 7.9 nM; in assay [10], 203 nM; in assay [11], 187 nM. The concentration giving a half-maximal response (EC50) in assay [12] worked out at 104 nM. The “C316Y/1a Fold Resistance” value in assay [2] is reported as 17 fold. In addition, the IC50 worked out at 3.5 nM in [3], 60 nM in [4] and 28 nM in assay [7]. Moreover, in assay [10], the “Transient Replicon Fold Resistance C316Y/1a” value is 26 fold.
On to `CS(=O)(=O)N(CCCN1CCS(=O)(=O)CC1)c1cc2oc(-c3ccc(F)cc3)c(C3=NOCCN3)c2cc1C1CC1` [Example 114, N-[5-cyclopropyl-3-(5,6-dihydro-4H-1,2,4-oxadiazin-3-yl)-2-(4-fluorophenyl)-1-benzofuran-6-yl]-N-[3-(1,1-dioxidothiomorpholin-4-yl)propyl]methanesulfonamide], for which the EC50 in assay [1] (setting [13]) worked out at 27.1 nM; in [1] (setting [14]) it was 406 nM; in [1] (setting [15]), 27.1 nM; in assay [1] (setting [16]), 27.1 nM; in [5] (setting [17]), 377 nM; in [5] (setting [18]), 33 nM. Moreover, the EC50 amounted to 33 nM in assay [5] (setting [19]); 56.2 nM in assay [6]; 299 nM in [8]; 21.8 nM in assay [9]; 238 nM in [10]; 331 nM in assay [11]. Besides, in assay [12], the EC50 came out at 307 nM. For the same molecule, the “C316Y/1a Fold Resistance” value in [2] is listed as 10 fold. In addition, the IC50 in [3] is 7 nM; in assay [4], 70 nM; in assay [7] it was 43 nM. Also, the “Transient Replicon Fold Resistance C316Y/1a” value in [10] came to 11 fold.
For `CC(C)(C#N)CCCCN(c1cc2oc(-c3ccc(F)cc3)c(C3=NOCCN3)c2cc1C1CC1)S(C)(=O)=O` [Example 115, N-(5-cyano-5-methylhexyl)-N-[5-cyclopropyl-3-(5,6-dihydro-4H-1,2,4-oxadiazin-3-yl)-2-(4-fluorophenyl)-1-benzofuran-6-yl]methanesulfonamide], the EC50 in assay [1] (setting [13]) amounted to 9.5 nM; in [1] (setting [14]), 38 nM; in assay [1] (setting [15]), 9.5 nM; in [1] (setting [16]), 9.5 nM; in assay [5] (setting [17]), 127 nM; in assay [5] (setting [18]) it was 14 nM. The EC50 was determined as 14 nM in assay [5] (setting [19]); 30 nM in [6]; 167 nM in assay [8]; 7.3 nM in assay [9]; 90.7 nM in assay [10]; 146 nM in assay [11]. Besides, the EC50 in assay [12] was determined as 124 nM. The “C316Y/1a Fold Resistance” value in assay [2] was 10 fold. For the same molecule, the IC50 in assay [3] amounted to 3.9 nM; in assay [4], 37 nM; in assay [7], 33 nM. Also, the “Transient Replicon Fold Resistance C316Y/1a” value in assay [10] worked out at 12 fold.
As to `CCOC(=O)CCCN(c1cc2oc(-c3ccc(F)cc3)c(C3=NOCCN3)c2cc1C1CC1)S(C)(=O)=O` [Example 121, ethyl 4-{[5-cyclopropyl-3-(5,6-dihydro-4H-1,2,4-oxadiazin-3-yl)-2-(4-fluorophenyl)-1-benzofuran-6-yl](methylsulfonyl)amino}butanoate], the EC50 in assay [1] (setting [13]) is 38.7 nM; in [1] (setting [14]) it was 311 nM; in assay [1] (setting [15]), 38.7 nM; in assay [1] (setting [16]), 38.7 nM; in assay [5] (setting [17]), 388 nM; in [5] (setting [18]), 68 nM. For the same molecule, the EC50 in assay [5] (setting [19]) came out at 68 nM; in assay [6], 121 nM; in assay [8], 1000 nM; in [9], 28 nM; in assay [10], 287 nM; in [11] it was 1000 nM. In assay [12], the EC50 was determined as 988 nM. For the same molecule, in [2], the “C316Y/1a Fold Resistance” value is recorded as 12 fold. For the same molecule, the figures for the IC50 in assay [3], in [4] and in [7] were 3.5 nM, 40 nM and 55 nM, respectively. In addition, the “Transient Replicon Fold Resistance C316Y/1a” value in [10] is 10 fold.
In the case of `CS(=O)(=O)CCCCN(c1cc2oc(-c3ccc(F)cc3)c(C3=NOCCN3)c2cc1C1CC1)S(C)(=O)=O` [Example 122, N-[5-cyclopropyl-3-(5,6-dihydro-4H-1,2,4-oxadiazin-3-yl)-2-(4-fluorophenyl)-1-benzofuran-6-yl]-N-[4-(methylsulfonyl)butyl]methanesulfonamide], the EC50 in assay [1] (setting [13]) stood at 8.4 nM; in assay [1] (setting [14]), 50 nM; in assay [1] (setting [15]) it was 8.4 nM; in assay [1] (setting [16]), 8.4 nM; in assay [5] (setting [17]), 81 nM; in [5] (setting [18]), 11 nM. Moreover, the EC50 in assay [5] (setting [19]) is 11 nM; in assay [6] it was 32 nM; in [8], 130 nM; in assay [9] it was 6.7 nM; in assay [10] it was 62.3 nM; in [11] it was 127 nM. In addition, the EC50 in [12] worked out at 83.9 nM. For the same molecule, the “C316Y/1a Fold Resistance” value in assay [2] came out at 7 fold. The figures for the IC50 in assay [3], in assay [4] and in assay [7] were 6.9 nM, 46 nM and 25 nM, respectively. The “Transient Replicon Fold Resistance C316Y/1a” value in [10] turned out to be 9 fold.
`CS(=O)(=O)N(CCC1CCS(=O)(=O)C1)c1cc2oc(-c3ccc(F)cc3)c(C3=NOCCN3)c2cc1C1CC1` (stereo not drawn) [Example 123]: the EC50 in assay [1] (setting [13]) was found to be 10.9 nM; in assay [1] (setting [14]), 108 nM; in [1] (setting [15]) it was 10.9 nM; in assay [1] (setting [16]), 10.9 nM; in assay [5] (setting [17]), 211 nM; in [5] (setting [18]), 18 nM. For the same molecule, the EC50 in [5] (setting [19]) amounted to 18 nM; in assay [6] it was 36.4 nM; in assay [8], 162 nM; in assay [9] it was 10.7 nM; in [10], 78.9 nM; in assay [11] it was 105 nM. Also, the concentration giving a half-maximal response (EC50) in assay [12] turned out to be 58.1 nM. The “C316Y/1a Fold Resistance” value in assay [2] amounted to 8 fold. The values for the IC50 in [3], in [4] and in assay [7] were 9.5 nM, 76 nM and 14 nM, respectively. The “Transient Replicon Fold Resistance C316Y/1a” value in [10] was found to be 7 fold.
